According to patent US20110176998A1, “IMAGING AND THERAPY OF VIRUS-ASSOCIATED TUMORS” (THE JOHNS HOPKINS UNIVERSITY, priority 2007, published 2011):

Key:
[1] = test system: EBV(+) Burkitt's lymphoma (Rael); experiment: tumor growth, EBV(+) Burkitt's lymphoma (Rael) xenografts; format: in vivo, SCID mice
Procedure: (§1) Therefore, an evaluation of a therapeutic isotope was carried out. As described above, SCID mice engrafted with EBV Burkitt's lymphoma xenografts received either buffer or bortezomib followed the next day by treatment with [^131I]FIAU or no treatment. […] Thus, bortezomib allowed targeting of [^131I]FIAU with therapeutic effect. Other proteasome inhibitors are also likely to be active. Several are in clinical trial.
(§2) Biostatistics. Linear regression and curve fitting were undertaken carried using GraphPad Prism software version 5.00 for Windows, GraphPad Software, San Diego Calif. USA, www.graphpad.com.

[2] = test system: human osteosarcoma 143B cells expressing EBV TK; experiment: tumor growth, EBV-TK expressing 143B tumors; format: in vivo, mice
Procedure: To determine whether EBV-TK mediated concentration of radioisotope in tumor tissue was adequate to achieve a therapeutic effect, mice with tumors were treated with [^131I]FIAU or buffered saline (FIG. 18A-18C).
as §2

[3] = test system: KSHV(+) primary effusion lymphoma (BCBL1); experiment: tumor growth, KSHV(+) primary effusion lymphoma (BCBL1) xenograft; format: in vivo, SCID mice; details: bortezomib induction followed by [131I]FIAU
Description: The approach observed in EBV-associated tumors is also applicable to other KSHV-associated tumors as shown in studies on two primary effusion lymphoma (PEL) cell lines that harbor KSHV. […] Finally, when induction with bortezomib was followed by treatment with [^131I]FIAU tumors regressed (FIG. 19C).

[4] = test system: EBV(+) Burkitt's lymphoma cell line (Akata); experiment: tumor growth, EBV(+) Burkitt's lymphoma (Akata) xenografts; format: in vivo, SCID mice; details: bortezomib followed by [131I]FIAU; second cell line
Procedure: as §1

[5] = scale-up of mouse biodistribution data to the human, MIRD dosimetry (OLINDA)
Description: Murine biodistribution data were converted to equivalent human data for dosimetry by assuming that the organ or tumor to whole-body concentration ratio in the mouse is equivalent to that in the human.
The initial (i.e., 2-h) activity concentration in the mouse tumor of 1.95% ID/g becomes 7×10^−4% ID/g, assuming a 1 gm tumor in the human. At this concentration, and assuming negligible biological clearance of ^131I, as shown in the biodistribution data, the absorbed dose per administered activity to a 1 gm tumor in a 70 kg human is 0.1 mGy/MBq (0.38 rad/mCi). […] The 5 to 20 GBq (135 to 540 mCi) required to deliver this dose-range is well within normal organ tolerance given the normal organ absorbed dose estimates listed in the table. A total administered activity of 20 GBq would result in 0.2 and 0.02 Gy to the kidneys and red marrow, respectively. Based on external beam and radiopeptide experience, the kidneys can tolerate 25 to 27 Gy before the onset of toxicity; the red marrow maximally tolerated dose is 2 Gy. Administration of a 540 mCi dose would likely present logistical problems, but these could be accommodated by fractioning the administration over three to four injections.

[6] = test system: EBV(+) gastric adenocarcinoma (KT); experiment: tumor growth, EBV(+) gastric adenocarcinoma (KT) xenograft; details: bortezomib induction followed by [131I]FIAU
Procedure: Bortezomib was administered intravenously at 1.67 μg/gram. […] For imaging or treatment, FIAU was administered 24 hours after bortezomib. In each of the experiments described bortezomib was administered as a single dose.

EBV-TK = experiment: immunoblot for EBV-TK expression; format: cell-based, Epstein-Barr virus; details: Western blot
Procedure: To detect expression of the EBV-TK or EBV-ZTA, total cell protein was first extracted by treating cells with lysis buffer (0.05 M Tris, pH 7.6, 0.15 M NaCl, 1% triton-X 100, 2 mM EDTA) containing protease inhibitors for 10 minutes at 4° C. The following reagents were added to 1 mL of lysis buffer: 2 μL leupeptin (5 mg/mL), 1 μL 0.2 M Na3VO4, 1 μL NaF, 1 μL aprotinin (10 mg/ml), 1 μL, pepstatin (2 mM), and 10 μL PMSF (100 mM) for 10 minutes at 4° C. Following centrifugation, the supernatant was collected and stored at −80° C. Protein concentration was determined with the BCA Protein Assay Kit (Pierce, Rockford, Ill.) according to the manufacturer's instructions. A 10 μg aliquot of total cellular protein was fractionated on a 7.5% SDS-polyacrylamide gel. Proteins were transferred to PROTRAN nitrocellulose membrane (Schleicher & Schuell, Keene, N.H.). The membranes were blocked with 5% blotting grade non-fat dry milk (Bio-rad, Hercules, Calif.) in PBS with 0.1% TWEEN-20 (PBS-T) at 4° C. overnight. […] The membranes were washed twice and proteins were detected with ECL Western Blotting Detection reagents (Amersham Pharmacia Biotech). […]

BZLF1 protein (ZTA) = experiment: Western blot / immunoblot for ZTA (BZLF1 protein) in EBV positive cell lines; format: cell-based, Epstein-Barr virus
Procedure: To detect expression of the EBV-TK or EBV-ZTA, total cell protein was first extracted by treating cells with lysis buffer (0.05 M Tris, pH 7.6, 0.15 M NaCl, 1% triton-X 100, 2 mM EDTA) containing protease inhibitors for 10 minutes at 4° C. The following reagents were added to 1 mL of lysis buffer: 2 μL leupeptin (5 mg/mL), 1 μL 0.2 M Na3VO4, 1 μL NaF, 1 μL aprotinin (10 mg/ml), 1 μL, pepstatin (2 mM), and 10 μL PMSF (100 mM) for 10 minutes at 4° C. Following centrifugation, the supernatant was collected and stored at −80° C. Protein concentration was determined with the BCA Protein Assay Kit (Pierce, Rockford, Ill.) according to the manufacturer's instructions. A 10 μg aliquot of total cellular protein was fractionated on a 7.5% SDS-polyacrylamide gel. Proteins were transferred to PROTRAN nitrocellulose membrane (Schleicher & Schuell, Keene, N.H.). The membranes were blocked with 5% blotting grade non-fat dry milk (Bio-rad, Hercules, Calif.) in PBS with 0.1% TWEEN-20 (PBS-T) at 4° C. overnight. The membranes were then washed with PBS-T twice followed by incubation with 1/1,000-diluted rabbit anti-TK sera from a rabbit immunized with a synthetic EBV-TK peptide ([…]) or anti-ZTA monoclonal antibody (Argene, North Massapequa, N.Y.) at room temperature for 1 hour. After washing, the membranes were incubated with HRP-conjugated goat anti-rabbit IgG antibodies or HRP-conjugated goat anti-mouse IgG antibodies (Amersham Pharmacia Biotech, Piscataway, N.J.) at a 1/5,000 dilution in PBS-T at room temperature for 1 hour. The membranes were washed twice and proteins were detected with ECL Western Blotting Detection reagents (Amersham Pharmacia Biotech). The membranes were exposed to X-OMAT film (Kodak, Rochester, N.Y.) at room temperature.
For lytic induction studies, cells were seeded at 10^6/ml, and treated with test compounds for 48 hours. Control untreated cells were incubated in parallel.
Cells were washed with PBS twice. Total cellular protein was extracted with lysis buffer. Proteins were electrophoresed in polyacrylamide and then transferred onto a PROTRAN nitrocellulose membrane (Schleicher&Schuell, Keene, N.H.). Blots were probed with primary antibody (Ab) overnight at 4° C. HRP-conjugated secondary Ab was added after washing and detected by an enhanced chemiluminescence system (ECL) (Amersham). The following antibodies were used: anti-ZTA (Argene), anti-f3-actin (Sigma), anti-mouse (Sigma).

[7] = test system: EBV-positive lymphoblastoid cells (LCL); experiment: immunofluorescence assay for BZLF1 protein in LCL cells; format: cell-based, Epstein-Barr virus; details: 1 μM, 48 hours
Procedure: LCL cells were treated with 1 μM Ara-c for 48 hours. The cells were then washed with PBS, resuspended, and plated on polylysine glass slides. Indirect immunofluorescence assays and fluorescence microscopy were performed. The slides were fixed in methanol at −20° C., washed with PBS, then incubated in primary antibody anti-ZTA (1:200) (Argene), washed with PBS, followed by secondary antibody incubation of donkey rhodamine-conjugated IgG (Jackson Pharmaceuticals, west Grove, Pa.). Mounting solution with 4′,6′-diamidino-2-phenylindole (DAPI) (Vector Shield) was used to mark the nucleus of the cell. Slides were then observed and photographed with 40× objectives on a E800 microscope (NIKON) with CCD camera (Princeton Instruments) using Metamorph software (Universial Imaging-Molecular Devices).

[8] = test system: EBV viral DNA copy number; experiment: real-time PCR for EBV viral DNA copy number (viral replication); format: cell-based, Epstein-Barr virus; details: for EBV viral replication (DNA copy number): LCL and SNU719 cells, 1 μM, 48 hours
Procedure: Genomic DNA from treated cells were extracted with the QIAamp DNA mini kit (Qiagen, CA) according to the manufacturer's instructions. PCRs were set up in a volume of 50 μL with a TaqMan PCR core reagent kit (Perkin-Elmer Corp., Branchburg, N.J.). Fluorescent probes were custom synthesized by Perkin-Elmer Applied Biosystems. PCR primers were synthesized by Gibco BRL (Frederick, Md.). Each reaction contained 5 μL of 10× buffer A (4 mM MgCl2), amplification primers (300 nM), fluorescent probe (25 nM), dATP, dCTP, and dGTP (200 μM each), dUTP (400 uM), 1.25 U of AmpliTaq Gold, and 0.5 U of AmpErase uracil N-glycosylase. Extracted genomic DNA was used for amplification. DNA amplification was carried out in a 96-well reaction plate in a Perkin-Elmer Applied Biosystems 7700 sequence detector. Each sample was analyzed in duplicate, and multiple negative water blanks were included in each analysis. A calibration curve was run in parallel and in duplicate with each analysis, with DNA extracted from the EBV-positive cell line Namalwa as a standard.
The EBV genome was quantified by real-time PCR with the ICycler system (Biorad, Hercules, Calif.). Template DNA was extracted with a mini blood DNA Kit (Qiagen, Valencia, Calif.). […]. A calibration curve was run in parallel and in duplicate with each analysis, using DNA extracted from the diploid EBV-positive cell line Namalwa containing two integrated viral genomes per cell as a standard. Amplification data were collected with an MyiQ single color real-time PCR Detector (Biorad) and analyzed with the MyiQ software developed by Biorad.

Zta promoter = format: cell-based, Epstein-Barr virus; details: AGS cells
[9] = earlier clinical use of FIAU (toxicity); format: in vivo, humans; details: conservatively estimated
Procedure: With regard to the potential clinical use of BETR therapy, FIAU-associated toxicity warrants discussion. FIAU was previously investigated as an antiviral agent. […] In those trials, treatment for less than four weeks with a cumulative dose less than 200 mg was not associated with either clinical or biochemical evidence of toxicity. Thus, the “no-effect dose” of FIAU might be conservatively estimated to be on the order of 0.1 mg/kg per administration. […] Extrapolating from xenograft experiments, a radiotherapeutic effect is likely to be achieved at doses of FIAU that are orders of magnitude times less than the no-effect FIAU dose in humans.

[10] = serum and whole blood; 24 hour period; cited from earlier work
[11] = in vivo; cited from earlier work
[12] = cited from earlier work
AGS-BX1 cells = experiment: GFP assay in AGS-BX1 cells; details: 1 μM
[13] = total administered activity of 20 GBq

O=c1[nH]c(=O)n([C@@H]2O[C@H](CO)[C@@H](O)[C@@H]2F)cc1[131I] [[^131I]FIAU]
tumor growth ([1]; bortezomib followed 24 hours later by [131I]FIAU): stopped tumor growth
tumor growth curves vs buffer alone ([1]; buffer followed by [131I]FIAU): similar
tumor growth rate in chimeric tumors ([2]; 10% of tumor cells harbor the EBV-TK, 1.7 mCi): substantially slowed
tumor growth dose response ([2]; EBV-TK expressing tumors, 1 mCi or 3 mCi): increasing effects on tumor growth
tumor growth slope ([2]; TK tumors, 1.6 mCi IV): flattened
tumor growth [3]: regressed
tumor growth [4]: parallel results
tumor activity concentration scaled to the human ([5]; assuming a 1 gm tumor in the human): 7×10^−4 % ID/g
absorbed dose to the kidneys [5, 13]: 0.2 Gy
absorbed dose to the red marrow [5, 13]: 0.02 Gy
tumor growth rate [6]: diminished

Nc1ccn([C@@H]2O[C@H](CO)[C@@H](O)[C@@H]2O)c(=O)n1 [Cytarabine]
EBV early lytic gene TK expression (EBV-TK): induced
BZLF1 protein (ZTA) expression (BZLF1 protein (ZTA); AKATA(-BX1), LCL and SNU719 cells, 1 μM, 48 hours): induced
LCL cells induced into lytic infection [7]: 40%
EBV viral replication (DNA copy number) [8]: did not induce
EBV viral replication (DNA copy number) ([8]; listed as Ara-c): not amplified
Zta promoter luciferase activity (Zta promoter): induced

O=c1[nH]c(=O)n([C@@H]2O[C@H](CO)[C@@H](O)[C@@H]2F)cc1I [FIAU, 2′-fluoro-2′-deoxy-β-D-5-iodouracil-arabinofuranoside]
no-effect dose [9]: ~0.1 mg/kg per administration
labeled compound remaining unchanged [10]: 97.8%±0.1%
blood-brain barrier penetration [11]: does not penetrate the blood-brain barrier
toxicity of chronic dosing ([12]; earlier antiviral trials): hepatic damage and in some cases fatality
cumulative dose not associated with clinical or biochemical evidence of toxicity ([12]; treatment for less than four weeks): less than 200 mg

COC(=O)Nc1nc2ccc(C(=O)c3ccccc3)cc2[nH]1 [Mebendazole]
GFP signal (AGS-BX1 cells): induced GFP signal
ZTA expression (BZLF1 protein (ZTA); LCL cells and AKATA cells): induced
increase of EBV viral DNA copy number ([8]; LCL cells and Rael cells, 1 μM for 48 hours): 20 fold
induction of BZLF1 promoter (Zta promoter; 1 μM): induced
